Results on ten compounds are retold here after ChEMBL document CHEMBL3351920, “Biased and unbiased strategies to identify biologically active small molecules” (Bioorg Med Chem, 2014).

For assay [1], the target named is T1, Glutathione S-transferase Mu 1 (Mus musculus, UniProt P10649).
T1 sequence (P10649 whole entry): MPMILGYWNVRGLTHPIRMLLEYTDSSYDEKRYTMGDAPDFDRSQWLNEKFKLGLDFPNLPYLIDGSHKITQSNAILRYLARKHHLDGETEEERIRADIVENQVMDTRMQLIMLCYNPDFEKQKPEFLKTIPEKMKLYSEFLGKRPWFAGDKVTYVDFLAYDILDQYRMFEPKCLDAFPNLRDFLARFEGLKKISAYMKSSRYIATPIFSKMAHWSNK
Kind of assay: Inhibition of mouse GSTM1-1.

The next assay deals with T2, Bcl-2-like protein 10 (Homo sapiens, UniProt Q9HD36).
T2 sequence (Q9HD36 whole entry): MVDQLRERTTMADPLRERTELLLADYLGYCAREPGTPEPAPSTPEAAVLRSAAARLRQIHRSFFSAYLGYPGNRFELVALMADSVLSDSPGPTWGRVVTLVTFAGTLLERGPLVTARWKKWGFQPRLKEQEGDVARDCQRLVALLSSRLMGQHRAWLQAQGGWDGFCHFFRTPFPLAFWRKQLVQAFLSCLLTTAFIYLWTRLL
The assay is described as follows: Binding affinity to Bcl-b (unknown origin).

A further assay deals with T3, Beta-casein (Bos taurus, UniProt P02666).
T3 sequence (P02666 whole entry): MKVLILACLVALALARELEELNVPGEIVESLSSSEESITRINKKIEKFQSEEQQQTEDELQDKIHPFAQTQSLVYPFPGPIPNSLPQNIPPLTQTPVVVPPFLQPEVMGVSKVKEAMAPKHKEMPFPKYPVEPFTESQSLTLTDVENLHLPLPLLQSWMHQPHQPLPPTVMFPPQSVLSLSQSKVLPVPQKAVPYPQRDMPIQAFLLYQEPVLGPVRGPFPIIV
Kind of assay: Binding affinity to bovine beta-casein A1.

For another assay, the target named is Acetylcholinesterase (Homo sapiens, UniProt P22303). The assay is described as follows: Inhibition of acetylcholine esterase (unknown origin).
The target in assay [2] is RAC-alpha serine/threonine-protein kinase (Homo sapiens, UniProt P31749). Kind of assay: Inhibition of Akt1 (unknown origin).
Assay [3] is described as follows: Binding affinity to double strand DNA (unknown origin).
A short description of assay [4]: Binding affinity to H-telo G-quadruplex DNA (unknown origin).
A short description of assay [5]: Inhibition of CUG-RNA/MBLN1 (unknown origin) interaction.
A short description of assay [6]: Binding affinity to G-quadruplex RNA (unknown origin).
In assay [7] the target is Cyclin-dependent kinase 1 (Homo sapiens, UniProt P06493). The assay is described as follows: Inhibition of CDK1 (unknown origin).

Structures are written as SMILES. pIC50, pKd, pKi: −log10 of the molar value. Where only a bound is given, the exact number is not on record here.

Chain of Acetylcholinesterase (P22303 whole entry): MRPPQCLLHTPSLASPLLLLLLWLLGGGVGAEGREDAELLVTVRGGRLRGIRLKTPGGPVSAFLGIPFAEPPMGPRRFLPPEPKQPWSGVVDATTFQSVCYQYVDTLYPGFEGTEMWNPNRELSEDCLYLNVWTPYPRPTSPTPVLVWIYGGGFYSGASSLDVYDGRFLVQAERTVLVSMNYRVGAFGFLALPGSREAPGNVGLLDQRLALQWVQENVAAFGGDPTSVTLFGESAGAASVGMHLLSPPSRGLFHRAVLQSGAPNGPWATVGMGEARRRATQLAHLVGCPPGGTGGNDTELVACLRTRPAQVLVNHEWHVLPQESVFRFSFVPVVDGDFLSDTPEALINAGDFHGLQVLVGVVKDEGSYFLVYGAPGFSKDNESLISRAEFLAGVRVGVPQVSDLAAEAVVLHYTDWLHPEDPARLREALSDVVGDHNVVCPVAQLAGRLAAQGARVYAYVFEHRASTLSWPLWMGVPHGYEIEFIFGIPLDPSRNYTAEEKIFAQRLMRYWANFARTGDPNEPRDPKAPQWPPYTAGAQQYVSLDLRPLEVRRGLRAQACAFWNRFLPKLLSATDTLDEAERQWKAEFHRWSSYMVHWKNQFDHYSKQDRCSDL
Chain of Cyclin-dependent kinase 1 (P06493 whole entry): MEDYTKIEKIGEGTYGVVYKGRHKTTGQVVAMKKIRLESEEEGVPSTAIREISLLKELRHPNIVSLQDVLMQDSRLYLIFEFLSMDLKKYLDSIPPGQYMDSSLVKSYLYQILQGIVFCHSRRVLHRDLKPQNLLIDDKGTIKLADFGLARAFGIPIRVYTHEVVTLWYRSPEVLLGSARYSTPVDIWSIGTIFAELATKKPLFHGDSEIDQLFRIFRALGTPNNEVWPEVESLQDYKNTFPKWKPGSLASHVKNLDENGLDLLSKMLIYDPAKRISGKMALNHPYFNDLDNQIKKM
Chain of RAC-alpha serine/threonine-protein kinase (P31749 whole entry): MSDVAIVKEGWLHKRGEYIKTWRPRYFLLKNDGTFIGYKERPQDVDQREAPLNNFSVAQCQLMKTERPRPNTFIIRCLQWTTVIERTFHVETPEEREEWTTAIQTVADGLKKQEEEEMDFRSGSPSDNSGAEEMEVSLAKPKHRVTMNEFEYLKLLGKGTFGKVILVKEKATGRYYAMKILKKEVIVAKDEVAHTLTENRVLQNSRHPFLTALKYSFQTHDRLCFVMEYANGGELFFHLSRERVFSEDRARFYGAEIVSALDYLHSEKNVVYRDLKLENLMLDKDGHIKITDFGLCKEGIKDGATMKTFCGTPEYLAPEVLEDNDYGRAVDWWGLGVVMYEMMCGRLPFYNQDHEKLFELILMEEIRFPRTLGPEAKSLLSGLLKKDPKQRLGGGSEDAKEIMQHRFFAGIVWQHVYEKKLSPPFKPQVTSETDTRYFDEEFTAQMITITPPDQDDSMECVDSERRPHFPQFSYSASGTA

As for `C[C@H](NC(=O)c1cccc(C(=O)N[C@@H](C)C(=O)N/N=C/c2ccc(SC[C@H](NC(=O)CC[C@H](N)C(=O)O)C(=O)NCC(=O)O)c([N+](=O)[O-])c2)c1)C(=O)N/N=C/c1ccc(SC[C@H](NC(=O)CC[C@H](N)C(=O)O)C(=O)NCC(=O)O)c([N+](=O)[O-])c1`, the negative-log IC50 (pIC50) in [1] is 7.30.

Take `CN(C)CC[C@H](CSc1ccccc1)Nc1ccc(S(=O)(=O)NC(=O)c2ccc(N3CCN(Cc4ccccc4-c4ccc(Cl)cc4)CC3)cc2)cc1[N+](=O)[O-]` [ABT 737]: the pKi at Bcl-2-like protein 10 and at Beta-casein was less than 9.00 each time.

At Acetylcholinesterase, `C[N+](C)(C)CCCCCCCCCC[N+](C)(C)C` [DECAMETHONIUM BROMIDE] gave a pIC50 of 6.00.

Take `CC[C@H](C)[C@H](NC(=O)[C@H](CCCNC(=N)N)NC(=O)[C@H](CCC(=O)O)NC(=O)[C@H](Cc1cnc[nH]1)NC(=O)[C@H](CCCNC(=N)N)NC(=O)C(CCCCCCCCn1cc(CCCC(=O)NC(CCCCCCCCn2cc(C[C@H](NC(C)=O)C(=O)N[C@@H](Cc3ccccc3)C(=O)N[C@@H](Cc3c[nH]c4ccccc34)C(=O)N[C@@H](Cc3ccccc3)C(=O)N[C@@H](CC(C)C)C(=O)N[C@@H](CCCNC(=N)N)C(=O)NCC(N)=O)nn2)C(=O)N[C@H](C(=O)N[C@@H](Cc2ccccc2)C(=O)N[C@@H](Cc2ccc(O)cc2)C(=O)N[C@@H](CCCNC(=N)N)C(=O)N[C@@H](CC(C)C)C(=O)NCC(=O)N[C@@H](Cc2ccc(O)cc2)C(=O)NCCNC(=O)CCCC[C@H]2SC[C@H]3NC(=O)N[C@H]32)C(C)C)nn1)NC(C)=O)C(N)=O` (stereo partly drawn): the pKd in assay [2] was 6.70.

With `NCCOc1cc(NC(=O)c2cc(OCc3cn([C@H]4O[C@H](CO)[C@@H](O)[C@H](O)[C@H]4O)nn3)cc(C(=O)Nc3cc(OCCN)c4ccccc4n3)n2)nc2ccccc12`, the deltaTm in assay [3] was determined as 0 K; in assay [4], 30 K.

For `CCc1nc2ccccc2cc1C(=O)N1CCC[C@H]1C(=O)N[C@H](CSSC[C@@H](NC(=O)[C@@H]1CCCN1C(=O)c1cc2ccccc2nc1CC)C(=O)N[C@@H](CCCCN)C(=O)NCCCN)C(=O)N[C@@H](CCCCN)C(=O)NCCCN`, in assay [5], the pKi was 5.44.

As to `O=C(Nc1cc(OCCN2CCCC2)c2ccccc2n1)c1cc(OCc2cn([C@H]3O[C@H](CO)[C@@H](O)[C@H](O)[C@H]3O)nn2)cc(C(=O)Nc2cc(OCCN3CCCC3)c3ccccc3n2)n1`, the deltaTm in assay [3] amounted to 0.1 K; in assay [4], 28 K.

Compound `NCCOc1cc(NC(=O)c2cc(OCc3cn(CCC(=O)O)nn3)cc(C(=O)Nc3cc(OCCN)c4ccccc4n3)n2)nc2ccccc12` gave a deltaTm in assay [6] of 20.7 K.

The compound `c1ccc2[nH]c(-c3cc[nH]n3)nc2c1` gave a negative-log IC50 (pIC50) in assay [7] of 4.55.

The compound `O=C(C[n+]1ccccc1)N/N=C/c1ccc(/C=N/NC(=O)C[n+]2ccccc2)cc1` had a pIC50 on Acetylcholinesterase of 8.64.

A word on the pIC50: it is −log10 of the IC50, conventionally taken in molar units. Read a low pIC50 as a high IC50. By pKi is commonly meant the negative decadic logarithm of the Ki, by convention in mol/L. For orientation: pKd means the negative decadic logarithm of the Kd, by convention in mol/L.
